In article PMC5601486, “Identification of 4-phenylquinolin-2(1H)-one as a specific allosteric inhibitor of Akt” (Scientific Reports, 2017):

Experiments:
MET(Y1235D) = assay: KINOMEscan; conditions: 50000 nM
Experimental: KINOMEscan™ selectivity screen
(§1) Briefly, Kinase-tagged T7 phage strains were grown in parallel in an E. coli host derived from the BL21 strain. E. coli were grown to log-phase and infected with T7 phage from a frozen stock and incubated with shaking at 32°C until lysis (90-150 minutes). The kinases were produced in HEK-293 cells and subsequently tagged with DNA for qPCR detection. Streptavidin-coated magnetic beads were treated with biotinylated small molecule ligands to generate affinity resins for kinase
(§2) inhibitor or DMSO control was performed in polypropylene 384-well plates for 1 hr at room temperature. After wash with PBS buffer containing 0.05% Tween 20, the beads were incubated in elution buffer (PBS containing 0.05 % Tween 20 and 0.5 μM non-biotinylated affinity ligand) for 30 minutes at room temperature. The kinase concentration in the eluates was measured by qPCR.

PAK4 = assay: KINOMEscan; conditions: 50000 nM
Experimental: as §1, §2

TLK1 = assay: KINOMEscan; conditions: 50000 nM
Experimental: KINOMEscan™ selectivity screen
(§3) The assay was perfor med at DiscoveRx Corporation according the methods published previously5. Briefly, Kinase-tagged T7 phage strains were grown in parallel in an E. coli host derived from the BL21 strain. E. coli were grown to log-phase and infected with T7 phage from a frozen stock and incubated with shaking at 32°C until lysis (90-150 minutes). The kinases were produced in HEK-293 cells and subsequently tagged with DNA for qPCR detection. Streptavidin-coated magnetic beads were treated with biotinylated small molecule ligands to generate affinity resins for kinase
as §2

CAMK1D = assay: KINOMEscan; conditions: 50000 nM
Experimental: as §1, §2

PIK3CA(E542K) = assay: KINOMEscan; conditions: 50000 nM
Experimental: KINOMEscan™ selectivity screen
as §3, §2

ABL1-phosphorylated = assay: KINOMEscan; conditions: 50000 nM
Experimental: KINOMEscan™ selectivity screen
as §3, §2

MLK1 = assay: KINOMEscan; conditions: 50000 nM
Experimental: KINOMEscan™ selectivity screen
as §3, §2

CDK5 = assay: KINOMEscan; conditions: 50000 nM
Experimental: KINOMEscan™ selectivity screen
as §3, §2

YSK1 = assay: KINOMEscan; conditions: 50000 nM
Experimental: KINOMEscan™ selectivity screen
as §3, §2

STK33 = assay: KINOMEscan; conditions: 50000 nM
Experimental: KINOMEscan™ selectivity screen
as §3, §2

KIT = assay: KINOMEscan; conditions: 50000 nM
Experimental: KINOMEscan™ selectivity screen
as §1, §2

FLT3(ITD) = assay: KINOMEscan; conditions: 50000 nM
Experimental: KINOMEscan™ selectivity screen
(§4) The assay was perfor med at DiscoveRx Corporation according the methods published previously5. […] The kinases were produced in HEK-293 cells and subsequently tagged with DNA for qPCR detection. Streptavidin-coated magnetic beads were treated with biotinylated small molecule ligands to generate affinity resins for kinase
as §2

PIK3CB = assay: KINOMEscan; conditions: 50000 nM
Experimental: KINOMEscan™ selectivity screen
as §1, §2

CDKL3 = assay: KINOMEscan; conditions: 50000 nM
Experimental: KINOMEscan™ selectivity screen
as §1, §2

MINK = assay: KINOMEscan; conditions: 50000 nM
Experimental: KINOMEscan™ selectivity screen
as §3, §2

FLT3(R834Q) = assay: KINOMEscan; conditions: 50000 nM
Experimental: KINOMEscan™ selectivity screen
as §4, §2

CDKL2 = assay: KINOMEscan; conditions: 50000 nM
Experimental: KINOMEscan™ selectivity screen
as §1, §2

WEE2 = assay: KINOMEscan; conditions: 50000 nM
Experimental: KINOMEscan™ selectivity screen
as §4, §2

[1] = system: TYK2(JH1domain-catalytic); assay: KINOMEscan; conditions: 50000 nM
Experimental: KINOMEscan™ selectivity screen
as §3, §2

AMPK-alpha1 = assay: KINOMEscan; conditions: 50000 nM
Experimental: KINOMEscan™ selectivity screen
as §3, §2

PKN1 = assay: KINOMEscan; conditions: 50000 nM
Experimental: KINOMEscan™ selectivity screen
as §3, §2

TIE1 = assay: KINOMEscan; conditions: 50000 nM
Experimental: KINOMEscan™ selectivity screen
as §4, §2

over 380 human kinases = assay: KINOMEscan selectivity screen (whole panel); conditions: 50000 nM; 403 non-mutant kinases
Experimental: KINOMEscan™ selectivity screen
as §3, §2

TEC = assay: KINOMEscan; conditions: 50000 nM
Experimental: KINOMEscan™ selectivity screen
as §1, §2

[2] = system: RSK2(Kin.Dom.1-N-terminal); assay: KINOMEscan; conditions: 50000 nM
Experimental: KINOMEscan™ selectivity screen
as §3, §2

[3] = system: RSK2(Kin.Dom.2-C-terminal); assay: KINOMEscan; conditions: 50000 nM
Experimental: KINOMEscan™ selectivity screen
as §3, §2

SIK = assay: KINOMEscan; conditions: 50000 nM
Experimental: KINOMEscan™ selectivity screen
as §3, §2

PRKD2 = assay: KINOMEscan; conditions: 50000 nM
Experimental: KINOMEscan™ selectivity screen
as §3, §2

CAMK4 = assay: KINOMEscan; conditions: 50000 nM
Experimental: KINOMEscan™ selectivity screen
as §3, §2

SYK = assay: KINOMEscan; conditions: 50000 nM
Experimental: KINOMEscan™ selectivity screen
as §3, §2

KIT(D816H) = assay: KINOMEscan; conditions: 50000 nM
Experimental: as §1, §2

EGFR = assay: KINOMEscan; conditions: 50000 nM
Experimental: KINOMEscan™ selectivity screen
as §3, §2

SGK1 = assay: Western blot of SGK1 S422 phosphorylation; assay type: cell-based, Mouse; conditions: all concentrations tested including 80 µM
Experimental: Neuro 2A cells were seeded in 12-well plates in DMEM containing 5% FBS for 24 hr.
After overnight serum starvation (in 0% FBS DMEM), cells were incubated for 30 min at 37 °C with G7 or LY294002 or Torin 1 (Sigma Aldrich) at various concentrations, or DMSO control. IGF-1 was added to each well at a final concentration of 100 ng/mL. After 30-min incubation cells were washed with cold PBS and lysed with 50 µL lysis buffer containing 1% Triton X-100 and protease/phosphatase inhibitors (Cell Signaling Technology) or RIPA buffer (Santa Cruz Biotech). Samples were electrophoresed in 4–12% Bis-Tris gels (Life Technologies) at 150 V using MOPS SDS running buffer. Proteins were transferred electrophoretically to a PVDF or nitrocellulose membrane. For detection of cleaved […]
caspase 3 a Trans-Blot Turbo Transfer System (Bio-Rad, 25 V for 25 min) with PVDF membrane were used. […]
anti- GAPDH (14C10) antibody (#2118) (all antibodies were from Cell Signaling Technology unless indicated, 1:1000 dilution was used) at 4°C overnight, washed three times with TBS-T, then incubated with peroxidase-conjugated secondary antibody (Sigma-Aldrich) for 1 hr at room temperature. […] Band intensity was quantitated using Kodak 1D imaging analysis software. […]

FGFR3 = assay: KINOMEscan; conditions: 50000 nM
Experimental: KINOMEscan™ selectivity screen
as §3, §2

AKT1 = assay: KINOMEscan; conditions: 50000 nM
Experimental: KINOMEscan™ selectivity screen
as §3, §2

DCAMKL3 = assay: KINOMEscan; conditions: 50000 nM
Experimental: KINOMEscan™ selectivity screen
as §1, §2

CAMK1 = assay: KINOMEscan; conditions: 50000 nM
Experimental: KINOMEscan™ selectivity screen
as §3, §2

Oc1cc(-c2ccccc2)c2ccccc2n1 [G7, 4-phenylquinolin-2(1H)-one]
Percent Control (MET(Y1235D)): 59% | Percent Control (PAK4): 84% | Percent Control (TLK1): 59% | Percent Control (CAMK1D): 87% | Percent Control (PIK3CA(E542K)): 82% | Percent Control (ABL1-phosphorylated): 73% | Percent Control (MLK1): 82% | Percent Control (CDK5): 75% | Percent Control (YSK1): 70% | Percent Control (STK33): 100% | Percent Control (KIT): 26% | Percent Control (FLT3(ITD)): 52% | Percent Control (PIK3CB): 69% | Percent Control (CDKL3): 89% | Percent Control (MINK): 77% | Percent Control (FLT3(R834Q)): 76% | Percent Control (CDKL2): 69% | Percent Control (WEE2): 84% | Percent Control [1]: 72% | Percent Control (AMPK-alpha1): 90% | Percent Control (PKN1): 89% | Percent Control (TIE1): 84% | Number of Hits S(1) (over 380 human kinases): 0 | Number of Hits S(10) (over 380 human kinases): 2 | Number of Hits S(35) (over 380 human kinases): 14 | Selectivity Score S(10) (over 380 human kinases): 0.005 | Selectivity Score S(35) (over 380 human kinases): 0.035 | Percent Control (TEC): 71% | Percent Control [2]: 17% | Percent Control [3]: 100% | Percent Control (SIK): 65% | Percent Control (PRKD2): 82% | Percent Control (CAMK4): 100% | Percent Control (SYK): 95% | Percent Control (KIT(D816H)): 84% | Percent Control (EGFR): 89% | S422 phosphorylation of SGK1 (SGK1): did not inhibit | Percent Control (FGFR3): 83% | Percent Control (AKT1): 100% | Percent Control (DCAMKL3): 91% | Percent Control (CAMK1): 84%
